# PubChem BioAssay (NCI)
#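 Interpolation was linear, between the two tested concentrations surrounding the appropriate level; five concentrations were tested over 48 hours in 96-well plates. Definition used: TGI = concentration required for complete inhibition of growth.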
# Assays:
# Assay in all cases: inhibition of tumour cell growth, NCI panel, 48 h
# U251 CNS = test system: U251 CNS
# IGROV1 ovarian = test system: IGROV1 ovarian
# KM12 colon = test system: KM12 colon
# HS 578T breast = test system: HS 578T breast
# SN12C renal = test system: SN12C renal
# HL-60(TB) leukemia = test system: HL-60(TB) leukemia
# SNB-75 CNS = test system: SNB-75 CNS
# SW-620 colon = test system: SW-620 colon
# MOLT-4 leukemia = test system: MOLT-4 leukemia
# UACC-257 melanoma = test system: UACC-257 melanoma
# NCI-H226 lung = test system: NCI-H226 lung
# SK-MEL-5 melanoma = test system: SK-MEL-5 melanoma
# MDA-MB-435 = test system: MDA-MB-435
# COLO 205 colon = test system: COLO 205 colon
# LOX IMVI melanoma = test system: LOX IMVI melanoma
# A549 NSCLC = test system: A549 NSCLC
# OVCAR-8 ovarian = test system: OVCAR-8 ovarian
# UACC-62 melanoma = test system: UACC-62 melanoma
# NCI-H460 lung = test system: NCI-H460 lung
# HCT-15 colon = test system: HCT-15 colon
# CCRF-CEM leukemia = test system: CCRF-CEM leukemia
# 786-0 renal = test system: 786-0 renal
# OVCAR-4 ovarian = test system: OVCAR-4 ovarian
# SNB-19 CNS = test system: SNB-19 CNS
# HOP-92 NSCLC = test system: HOP-92 NSCLC
# TK-10 renal = test system: TK-10 renal
# MDA-N = test system: MDA-N
# HT29 colon = test system: HT29 colon
# SF-268 CNS = test system: SF-268 CNS
# DU-145 prostate = test system: DU-145 prostate
# T-47D breast = test system: T-47D breast
# A498 renal = test system: A498 renal
# BT-549 breast = test system: BT-549 breast
# CAKI-1 renal = test system: CAKI-1 renal
# HCT-116 colon = test system: HCT-116 colon
# MCF7 breast = test system: MCF7 breast
# NCI-H23 lung = test system: NCI-H23 lung
# SK-MEL-2 melanoma = test system: SK-MEL-2 melanoma
# NCI-H522 lung = test system: NCI-H522 lung
# EKVX NSCLC = test system: EKVX NSCLC
# SR leukemia = test system: SR leukemia
# OVCAR-5 ovarian = test system: OVCAR-5 ovarian
# MDA-MB-231 breast = test system: MDA-MB-231 breast
# SK-MEL-28 melanoma = test system: SK-MEL-28 melanoma
# HCC-2998 colon = test system: HCC-2998 colon
# SK-OV-3 ovarian = test system: SK-OV-3 ovarian
# UO-31 renal = test system: UO-31 renal
# MALME-3M melanoma = test system: MALME-3M melanoma
# SF-539 CNS = test system: SF-539 CNS
# ACHN renal = test system: ACHN renal
# M14 melanoma = test system: M14 melanoma
# NCI/ADR-RES ovarian = test system: NCI/ADR-RES ovarian
# PC-3 prostate = test system: PC-3 prostate
# RXF 393 renal = test system: RXF 393 renal
# K-562 leukemia = test system: K-562 leukemia
# RPMI-8226 leukemia = test system: RPMI-8226 leukemia
# HOP-62 NSCLC = test system: HOP-62 NSCLC
# OVCAR-3 ovarian = test system: OVCAR-3 ovarian
# SF-295 CNS = test system: SF-295 CNS
smiles,measurement,setting,value
C=C(C)C1CC2(C)C(C)CC(OC(=O)/C(C)=C\C)CC2C(OC(=O)/C(C)=C\C)C1O (stereo unspecified),TGI,U251 CNS,> 100 µM
same,TGI,IGROV1 ovarian,> 100 µM
same,TGI,KM12 colon,> 100 µM
same,TGI,HS 578T breast,> 100 µM
same,TGI,SN12C renal,> 100 µM
same,TGI,HL-60(TB) leukemia,43.6 µM
same,TGI,SNB-75 CNS,> 100 µM
same,TGI,SW-620 colon,> 100 µM
same,TGI,MOLT-4 leukemia,60.3 µM
same,TGI,UACC-257 melanoma,> 100 µM
same,TGI,NCI-H226 lung,> 100 µM
same,TGI,SK-MEL-5 melanoma,43.7 µM
same,TGI,MDA-MB-435,> 100 µM
same,TGI,COLO 205 colon,48.4 µM
same,TGI,LOX IMVI melanoma,> 100 µM
same,TGI,A549 NSCLC,> 100 µM
same,TGI,OVCAR-8 ovarian,> 100 µM
same,TGI,UACC-62 melanoma,> 100 µM
same,TGI,NCI-H460 lung,> 100 µM
same,TGI,HCT-15 colon,> 100 µM
same,TGI,CCRF-CEM leukemia,45.8 µM
same,TGI,786-0 renal,> 100 µM
same,TGI,OVCAR-4 ovarian,> 100 µM
same,TGI,SNB-19 CNS,> 100 µM
same,TGI,HOP-92 NSCLC,> 100 µM
same,TGI,TK-10 renal,> 100 µM
same,TGI,MDA-N,> 100 µM
same,TGI,HT29 colon,> 100 µM
same,TGI,SF-268 CNS,> 100 µM
same,TGI,DU-145 prostate,> 100 µM
same,TGI,T-47D breast,> 100 µM
same,TGI,A498 renal,> 100 µM
same,TGI,BT-549 breast,> 100 µM
same,TGI,CAKI-1 renal,> 100 µM
same,TGI,HCT-116 colon,> 100 µM
same,TGI,MCF7 breast,> 100 µM
same,TGI,NCI-H23 lung,> 100 µM
same,TGI,SK-MEL-2 melanoma,> 100 µM
same,TGI,NCI-H522 lung,> 100 µM
same,TGI,EKVX NSCLC,> 100 µM
same,TGI,SR leukemia,45.1 µM
same,TGI,OVCAR-5 ovarian,> 100 µM
same,TGI,MDA-MB-231 breast,> 100 µM
same,TGI,SK-MEL-28 melanoma,> 100 µM
same,TGI,HCC-2998 colon,> 100 µM
same,TGI,SK-OV-3 ovarian,> 100 µM
same,TGI,UO-31 renal,> 100 µM
same,TGI,MALME-3M melanoma,> 100 µM
same,TGI,SF-539 CNS,> 100 µM
same,TGI,ACHN renal,> 100 µM
same,TGI,M14 melanoma,> 100 µM
same,TGI,NCI/ADR-RES ovarian,> 100 µM
same,TGI,PC-3 prostate,> 100 µM
CC(=O)Nc1ccc(CNc2cc(=O)n(C)c(=O)[nH]2)cc1,TGI,U251 CNS,> 100 µM
same,TGI,IGROV1 ovarian,> 100 µM
same,TGI,KM12 colon,> 100 µM
same,TGI,HS 578T breast,> 100 µM
same,TGI,SN12C renal,> 100 µM
same,TGI,HL-60(TB) leukemia,> 100 µM
same,TGI,SNB-75 CNS,> 100 µM
same,TGI,SW-620 colon,> 100 µM
same,TGI,MOLT-4 leukemia,> 100 µM
same,TGI,UACC-257 melanoma,> 100 µM
same,TGI,NCI-H226 lung,> 100 µM
same,TGI,SK-MEL-5 melanoma,> 100 µM
same,TGI,MDA-MB-435,> 100 µM
same,TGI,COLO 205 colon,> 100 µM
same,TGI,LOX IMVI melanoma,> 100 µM
same,TGI,A549 NSCLC,> 100 µM
same,TGI,OVCAR-8 ovarian,> 100 µM
same,TGI,UACC-62 melanoma,> 100 µM
same,TGI,RXF 393 renal,> 100 µM
same,TGI,NCI-H460 lung,> 100 µM
same,TGI,HCT-15 colon,> 100 µM
same,TGI,CCRF-CEM leukemia,> 100 µM
same,TGI,786-0 renal,> 100 µM
same,TGI,OVCAR-4 ovarian,> 100 µM
same,TGI,SNB-19 CNS,> 100 µM
same,TGI,HOP-92 NSCLC,> 100 µM
same,TGI,TK-10 renal,> 100 µM
same,TGI,MDA-N,> 100 µM
same,TGI,HT29 colon,> 100 µM
same,TGI,SF-268 CNS,> 100 µM
same,TGI,DU-145 prostate,> 100 µM
same,TGI,K-562 leukemia,> 100 µM
same,TGI,T-47D breast,> 100 µM
same,TGI,RPMI-8226 leukemia,> 100 µM
same,TGI,BT-549 breast,> 100 µM
same,TGI,CAKI-1 renal,> 100 µM
same,TGI,HCT-116 colon,> 100 µM
same,TGI,HOP-62 NSCLC,> 100 µM
same,TGI,MCF7 breast,> 100 µM
same,TGI,NCI-H23 lung,> 100 µM
same,TGI,OVCAR-3 ovarian,> 100 µM
same,TGI,SK-MEL-2 melanoma,> 100 µM
same,TGI,NCI-H522 lung,> 100 µM
same,TGI,EKVX NSCLC,> 100 µM
same,TGI,SR leukemia,> 100 µM
same,TGI,OVCAR-5 ovarian,> 100 µM
same,TGI,MDA-MB-231 breast,> 100 µM
same,TGI,SK-MEL-28 melanoma,> 100 µM
same,TGI,HCC-2998 colon,> 100 µM
same,TGI,SK-OV-3 ovarian,> 100 µM
same,TGI,UO-31 renal,> 100 µM
same,TGI,MALME-3M melanoma,> 100 µM
same,TGI,SF-539 CNS,> 100 µM
same,TGI,ACHN renal,> 100 µM
same,TGI,M14 melanoma,> 100 µM
same,TGI,NCI/ADR-RES ovarian,> 100 µM
same,TGI,PC-3 prostate,> 100 µM
same,TGI,SF-295 CNS,> 100 µM
